In the assay the target is T1, human TRPV3 (Homo sapiens, UniProt Q8NET8).
T1 construct: expressed in transfected cells; host or cells: HEK293
T1 sequence (Q8NET8 1-790): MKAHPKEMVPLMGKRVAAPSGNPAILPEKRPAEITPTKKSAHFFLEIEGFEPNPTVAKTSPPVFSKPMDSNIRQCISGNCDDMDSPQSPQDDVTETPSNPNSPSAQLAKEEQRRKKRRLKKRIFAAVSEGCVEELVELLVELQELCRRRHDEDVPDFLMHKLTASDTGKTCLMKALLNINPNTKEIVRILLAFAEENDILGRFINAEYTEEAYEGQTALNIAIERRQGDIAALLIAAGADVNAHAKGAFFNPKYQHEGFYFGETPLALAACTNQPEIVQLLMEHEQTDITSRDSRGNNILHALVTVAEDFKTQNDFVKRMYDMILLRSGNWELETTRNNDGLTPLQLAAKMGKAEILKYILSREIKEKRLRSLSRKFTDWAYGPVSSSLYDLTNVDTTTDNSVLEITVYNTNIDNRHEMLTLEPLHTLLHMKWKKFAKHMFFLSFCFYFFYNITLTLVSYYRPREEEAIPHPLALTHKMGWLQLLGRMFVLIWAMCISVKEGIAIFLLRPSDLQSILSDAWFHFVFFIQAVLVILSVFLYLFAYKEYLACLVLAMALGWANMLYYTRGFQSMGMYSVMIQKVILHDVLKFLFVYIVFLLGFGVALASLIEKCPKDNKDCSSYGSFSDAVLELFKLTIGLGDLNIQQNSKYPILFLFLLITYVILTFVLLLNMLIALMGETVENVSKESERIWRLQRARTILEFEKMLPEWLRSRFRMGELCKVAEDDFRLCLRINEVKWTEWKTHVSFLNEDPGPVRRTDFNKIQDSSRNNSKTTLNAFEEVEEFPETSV
Kind of assay: Calcium flux assay (FLIPR TETRA), recombinant HEK293 cells expressing TRPV3, 2-APB response. The format is cell-based. Conditions: 2-APB at its EC80. Here is the method: (i) In Vitro Methods-Calcium Flux Assays:
Experiments were conducted using the FLIPR TETRA®. On the day prior to the experiment, recombinant HEK293 cells that stably express human and mouse TRPV3 were removed from tissue culture flasks and plated in growth medium at 20,000 cells/well into black-walled clear-bottom 384-well BIOCOAT™ poly-D-lysine assay plates (BD Biosciences, Bedford, Mass.) using a MULTIDROP® dispenser (ThermoScientific, Waltham, Mass.). On the day of the experiment, growth medium was removed, and the no-wash FLIPR® Calcium-4 dye (λEX=470-495 nm, λEM=515-575 nm; Molecular Devices, Sunnyvale, Calif.) was added to each well using the MULTIDROP® dispenser. Cells were incubated for 90-120 minutes in the dark. The compounds were dissolved in DMSO to prepare a 10 mM stock solution. The intensity of the fluorescence was captured and digitally transferred to an interfaced PC. The peak increase in fluorescence over baseline, measured in relative fluorescence units, was calculated and expressed as the percentage of the maximal 2-APB (2-aminoethoxyldiphenyl borate) response (in the absence of compound). The concentration of 2-APB corresponds to its EC80.
(A change in cytosolic calcium serves as a functional read-out for many receptors and channels.)

With `COc1ncnc(OC)c1C(=O)Nc1nc(-c2ccc(C(F)(F)F)cn2)c(C(C)(C)O)s1` [Example 85, N-{5-(2-hydroxypropan-2-yl)-4-[5-(trifluoromethyl)pyridin-2-yl]-1,3-thiazol-2-yl}-4,6-dimethoxypyrimidine-5-carboxamide], the IC50 (commonly the concentration needed to halve the response being measured) was 50 to 100 nM.

For the compound `COc1ncnc(OC)c1C(=O)Nc1nc(C(F)(F)F)c(-c2ccc(OCC(F)(F)F)nc2)s1` [Example 194, 4,6-dimethoxy-N-{5-[6-(2,2,2-trifluoroethoxy)pyridin-3-yl]-4-(trifluoromethyl)-1,3-thiazol-2-yl}pyrimidine-5-carboxamide], the IC50 was 100 to 500 nM. With `COc1ncnc(OC)c1C(=O)Nc1nc(CCC2CC2)cs1` [Example 105, N-[4-(2-cyclopropylethyl)-1,3-thiazol-2-yl]-4,6-dimethoxypyrimidine-5-carboxamide] the figure was 50 to 100 nM. As to `COc1ncnc(OC)c1C(=O)Nc1nc(C(F)(F)F)c(N2CCOCC2)s1` [Example 32, 4,6-dimethoxy-N-[5-(morpholin-4-yl)-4-(trifluoromethyl)-1,3-thiazol-2-yl]pyrimidine-5-carboxamide], the IC50 was in the range of 100 to 500 nM. Take `COc1ncnc(OC)c1C(=O)Nc1nc(-c2ccc(C(F)(F)F)cn2)c(C(C)O)s1` (single isomer, unassigned) [Example 84, N-{5-[(1S*)-1-hydroxyethyl]-4-[5-(trifluoromethyl)pyridin-2-yl]-1,3-thiazol-2-yl}-4,6-dimethoxypyrimidine-5-carboxamide]: the IC50 fell in the range of 100 to 500 nM. As for `COc1ncnc(OC)c1C(=O)Nc1nc(C(F)(F)F)c(C(F)(F)F)s1` [Example 163, N-[4,5-bis(trifluoromethyl)-1,3-thiazol-2-yl]-4,6-dimethoxypyrimidine-5-carboxamide], the IC50 was 50 to 100 nM. With `COCCN(C)S(=O)(=O)c1cccc(-c2sc(NC(=O)c3c(OC)ncnc3OC)nc2C(F)(F)F)c1` [Example 197, 4,6-dimethoxy-N-[5-{3-[(2-methoxyethyl)(methyl)sulfamoyl]phenyl}-4-(trifluoromethyl)-1,3-thiazol-2-yl]pyrimidine-5-carboxamide] the figure was < 50 nM; with `COc1ncnc(OC)c1C(=O)Nc1nc(C(F)(F)F)c(C(O)c2ccc(F)cn2)s1` (stereo not shown) [Example 130, N-{5-[(5-fluoropyridin-2-yl)(hydroxy)methyl]-4-(trifluoromethyl)-1,3-thiazol-2-yl}-4,6-dimethoxypyrimidine-5-carboxamide], 100 to 500 nM; with `COCc1sc(NC(=O)c2c(OC)ncnc2OC)nc1C(F)(F)F` [Example 206, 4,6-dimethoxy-N-(5-(methoxymethyl)-4-(trifluoromethyl)thiazol-2-yl)pyrimidine-5-carboxamide], 100 to 500 nM. With `COc1ncnc(OC)c1C(=O)Nc1nc(C(F)(F)F)c(C2(O)CCC2)s1` [Example 119, N-[5-(1-hydroxycyclobutyl)-4-(trifluoromethyl)-1,3-thiazol-2-yl]-4,6-dimethoxypyrimidine-5-carboxamide], the IC50 was > 1000 nM. Turning to `COc1ncnc(OC)c1C(=O)Nc1nc(C(F)(F)F)c(-c2cnc(N3CCOCC3)c(C#N)c2)s1` [Example 204, N-{5-[5-cyano-6-(morpholin-4-yl)pyridin-3-yl]-4-(trifluoromethyl)-1,3-thiazol-2-yl}-4,6-dimethoxypyrimidine-5-carboxamide], the IC50 was < 50 nM. `COc1ncnc(OC)c1C(=O)Nc1nc(C(F)(F)F)c(-c2cc(C(C)C)no2)s1` [Example 171, 4,6-dimethoxy-N-{5-[3-(propan-2-yl)-1,2-oxazol-5-yl]-4-(trifluoromethyl)-1,3-thiazol-2-yl}pyrimidine-5-carboxamide]: the IC50 was 50 to 100 nM. For the compound `COc1ncnc(OC)c1C(=O)Nc1nc(C(F)(F)F)c(/C(C)=N/O)s1` [Example 134, N-{5-[(1E)-N-hydroxyethanimidoyl]-4-(trifluoromethyl)-1,3-thiazol-2-yl}-4,6-dimethoxypyrimidine-5-carboxamide], the IC50 was 100 to 500 nM.

Take `COc1ncnc(OC)c1C(=O)Nc1nc(C(F)(F)F)c(C#CCO)s1` [Example 12, N-[5-(3-hydroxyprop-1-yn-1-yl)-4-(trifluoromethyl)-1,3-thiazol-2-yl]-4,6-dimethoxypyrimidine-5-carboxamide]: the IC50 lay within 100 to 500 nM. As for `COc1ncnc(OC)c1C(=O)Nc1nc(C(F)(F)F)c(-c2ccnn2CC2CC2)s1` [Example 188, N-{5-[1-(cyclopropylmethyl)-1H-pyrazol-5-yl]-4-(trifluoromethyl)-1,3-thiazol-2-yl}-4,6-dimethoxypyrimidine-5-carboxamide], the IC50 was < 50 nM. Take `COc1ncnc(OC)c1C(=O)Nc1nc(-c2ccc(OC(F)(F)F)cn2)cs1` [Example 92, 4,6-dimethoxy-N-{4-[5-(trifluoromethoxy)pyridin-2-yl]-1,3-thiazol-2-yl}pyrimidine-5-carboxamide]: the IC50 is < 50 nM.

As for `COc1ncnc(OC)c1C(=O)Nc1nc(C(F)(F)F)c(S(=O)(=O)Cc2ccccc2)s1` [Example 111, N-[5-benzylsulfonyl-4-(trifluoromethyl)-1,3-thiazol-2-yl]-4,6-dimethoxy-pyrimidine-5-carboxamide], the IC50 fell in the range of 500 to 1000 nM. As for `COc1ncnc(OC)c1C(=O)Nc1nc(C(F)(F)F)c(-c2cnccn2)s1` [Example 28, 4,6-dimethoxy-N-[5-(pyrazin-2-yl)-4-(trifluoromethyl)-1,3-thiazol-2-yl]pyrimidine-5-carboxamide], the IC50 was 500 to 1000 nM. With `COc1ncnc(OC)c1C(=O)Nc1nc(/C=C/C(C)(C)C)cs1` [Example 104, N-{4-[(1E)-3,3-dimethylbut-1-en-1-yl]-1,3-thiazol-2-yl}-4,6-dimethoxypyrimidine-5-carboxamide] the figure was > 1000 nM; with `COc1ncnc(OC)c1C(=O)Nc1nc(C2CCC2)c(F)s1` [Example 101, N-(4-cyclobutyl-5-fluoro-1,3-thiazol-2-yl)-4,6-dimethoxypyrimidine-5-carboxamide], 50 to 100 nM; with `C#Cc1sc(NC(=O)c2c(OC)ncnc2OC)nc1C(F)(F)F` [Example 11, N-[5-ethynyl-4-(trifluoromethyl)-1,3-thiazol-2-yl]-4,6-dimethoxypyrimidine-5-carboxamide], < 50 nM. In the case of `COc1ncnc(OC)c1C(=O)Nc1nc(C(F)(F)F)c(-c2ccnc(C(F)(F)F)c2)s1` [Example 166, 4,6-dimethoxy-N-{4-(trifluoromethyl)-5-[2-(trifluoromethyl)pyridin-4-yl]-1,3-thiazol-2-yl}pyrimidine-5-carboxamide] it was 50 to 100 nM; in that of `COc1ncnc(OC)c1C(=O)Nc1nc(C(F)(F)F)c(CN2CCOCC2)s1` [Example 50, 4,6-dimethoxy-N-[5-(morpholin-4-ylmethyl)-4-(trifluoromethyl)-1,3-thiazol-2-yl]pyrimidine-5-carboxamide], > 1000 nM; in that of `COc1ncnc(OC)c1C(=O)Nc1nc(C(F)(F)F)c(C2=COCC2)s1` [Example 145, N-(5-(4,5-dihydrofuran-3-yl)-4-(trifluoromethyl)thiazol-2-yl)-4,6-dimethoxypyrimidine-5-carboxamide], < 50 nM. With `COc1ncnc(OC)c1C(=O)Nc1nc(/C=C/C2CC2)cs1` [Example 103, N-{4-[(E)-2-cyclopropylethenyl]-1,3-thiazol-2-yl}-4,6-dimethoxypyrimidine-5-carboxamide], the IC50 was > 1000 nM. With `COc1ncnc(OC)c1C(=O)Nc1nc(C(F)(F)F)c(C2=CCCO2)s1` [Example 143, N-[5-(4,5-dihydrofuran-2-yl)-4-(trifluoromethyl)-1,3-thiazol-2-yl]-4,6-dimethoxypyrimidine-5-carboxamide] the figure was < 50 nM; with `COc1ncnc(OC)c1C(=O)Nc1nc(C(F)(F)F)c(-c2cnn(CC3CC3)c2)s1` [Example 175, N-{5-[1-(cyclopropylmethyl)-1H-pyrazol-4-yl]-4-(trifluoromethyl)-1,3-thiazol-2-yl}-4,6-dimethoxypyrimidine-5-carboxamide], < 50 nM; with `COc1ncnc(OC)c1C(=O)Nc1nc(C(F)(F)F)c(-c2cnn(C(C)C)c2)s1` [Example 174, 4,6-dimethoxy-N-{5-[1-(propan-2-yl)-1H-pyrazol-4-yl]-4-(trifluoromethyl)-1,3-thiazol-2-yl}pyrimidine-5-carboxamide], < 50 nM.
